Laboratory results from patent US5492919A, “5-HT4 receptor antagonists” (SmithKline Beecham p.l.c., priority 1991, dated 1996).

Key:
[1] = target: T1, 5-HT4 receptor (Cavia porcellus, UniProt O70528); assay: 5-HT4 receptor antagonist activity: guinea pig colon (longitudinal muscle-myenteric plexus preparations), reduction of 5-HT-evoked contractions; assay type: cell-based; details: for activity in guinea pig colon, in words: relative to compounds generally active at pIC50 = 6 or more
T1 construct: Longitudinal muscle-myenteric plexus preparations, approximately 3 cm long, are obtained from the distal colon region; from tissue; host or cells: guinea pig distal colon, longitudinal muscle-myenteric plexus preparation
Description: (§1) 5-HT4 RECEPTOR ANTAGONIST ACTIVITY
Male guinea-pigs, weighing 250-400 g are used. Longitudinal muscle-myenteric plexus preparations, approximately 3 cm long, are obtained from the distal colon region. These are suspended under a 0.5 g load in isolated tissue baths containing Krebs solution bubbled with 5% CO2 in O2 and maintained at 37° C. In all experiments, the Krebs solution also contains methiothepin 10^-7 M and granisetron 10^-6 M to block effects at 5-HT1, 5-HT2 and 5-HT3 receptors.
After construction of a simple concentration-response curve with 5-HT, using 30s contact times and a 15rain dosing cycle, a concentration of 5-HT is selected so as to obtain a contraction of the muscle approximately 40-70% maximum(10^-9 M approx). The tissue is then alternately dosed every 15 min with this concentration of 5-HT and then with an approximately equi-effective concentration of the nicotine receptor stimulant, dimethylphenylpiperazinium (DMPP). After obtaining consistent responses to both 5-HT and DMPP, increasing concentrations of a putative 5-HT4 receptor antagonist are then added to the bathing solution. The effects of this compound are then determined as a percentage reduction of the contractions evoked by 5-HT or by DMPP. […] A compound which reduces the response to 5-HT but not to DMPP is believed to act as a 5-HT4 receptor antagonist.

[2] = target: T2, 5-HT4 receptor (Sus scrofa, UniProt Q6Q253); assay: 5-HT4 receptor antagonist activity: piglet atria, piglet spontaneous beating screen; assay type: cell-based
T2 construct: functional antagonism (pKB)
Description: as §1
Compounds were tested in the piglet spontaneous beating screen (Naunyn-Schmiedeberg's Arch. Pharmacol 342, 619-622). pKB (-log10 KB) value for the compound of Example 21 of EP-A-328200 was 7.6.

T1 sequence (O70528 whole entry): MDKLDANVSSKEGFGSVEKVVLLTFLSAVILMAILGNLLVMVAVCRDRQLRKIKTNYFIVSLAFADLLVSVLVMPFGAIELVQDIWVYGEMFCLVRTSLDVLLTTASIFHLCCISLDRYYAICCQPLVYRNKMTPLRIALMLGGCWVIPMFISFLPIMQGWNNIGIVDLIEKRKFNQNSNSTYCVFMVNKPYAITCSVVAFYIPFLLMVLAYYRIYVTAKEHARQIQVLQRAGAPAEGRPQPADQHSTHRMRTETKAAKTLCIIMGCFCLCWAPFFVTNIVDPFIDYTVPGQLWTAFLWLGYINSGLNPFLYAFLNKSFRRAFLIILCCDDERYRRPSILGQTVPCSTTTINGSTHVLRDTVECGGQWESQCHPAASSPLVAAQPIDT
T2 sequence (Q6Q253 1-402): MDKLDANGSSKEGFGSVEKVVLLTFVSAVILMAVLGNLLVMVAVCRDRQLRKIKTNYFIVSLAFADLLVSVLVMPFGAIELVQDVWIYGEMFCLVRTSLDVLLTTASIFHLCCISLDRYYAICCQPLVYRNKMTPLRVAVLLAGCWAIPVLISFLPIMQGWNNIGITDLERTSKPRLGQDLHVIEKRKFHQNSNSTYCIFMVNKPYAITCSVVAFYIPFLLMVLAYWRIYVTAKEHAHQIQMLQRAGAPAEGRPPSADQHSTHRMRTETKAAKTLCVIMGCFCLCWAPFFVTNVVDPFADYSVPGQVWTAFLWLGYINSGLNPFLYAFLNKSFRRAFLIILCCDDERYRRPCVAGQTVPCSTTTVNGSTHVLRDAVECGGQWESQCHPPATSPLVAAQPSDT

IC50 ([1]; 5-HT approx 10^-9 M, Krebs solution with methiothepin 10^-7 M and granisetron 10^-6 M, 37° C, read-out: pIC50 (-log concentration of antagonist which reduces the contraction by 50%) (converted)) [nM]	pKB (-log10 KB) [2]	activity in guinea pig colon, in words [1]	Compound
50.1	7.6	–	Cn1cc(-c2noc(CCN3CCCCC3)n2)c2ccccc21 [Example 21 of EP-A-328200, 1-methyl-3-[5-(2-(1-piperidyl)ethyl)-1,2,4-oxadiazol-3-yl]indole]
–	–	particularly good activity	CCCCN(C)CCCc1nc(-c2cn(C)c3ccccc23)no1 [Example E1, 5-[3-(N-Methylbutylamino)propyl]-3-[1-methyl-1H-indol-3-yl]-1,2,4-oxadiazole]
–	–	particularly good activity	CCCCN1CCC(Cc2nc(-c3cn(C)c4ccccc34)no2)CC1 [Example E3]
